Reference: US20060035966A1, “Irreversible selective androgen receptor modulators and methods of use thereof” (priority 2002, published 2006)
Like-named read-outs stand apart in the source and are kept apart here.

What was measured:
HT-29 cells = experiment: Induction of apoptosis, HT-29; assay type: cell-based, human
Experimental: (§1) The ability of DJ 1-31, DJ 1-29, S-NTBA and Compound V to induce apoptosis in different prostate cancer cell lines (DU 145, PC-3, TSU, PPC-1 and LNCaP), in other cancer cell lines (TCCSUP, HT-29 and MCF-7) and in a control cell line (CV-1) was determined and the results are shown in Table 6.

PC-3 cells = experiment: Induction of apoptosis, PC-3; assay type: cell-based, human
Experimental: as §1

[1] = tested on: PPC-1 prostate cancer cell line; experiment: Cytotoxicity, SRB assay, PPC-1; assay type: cell-based, human; details: Homo sapiens
Experimental: (§2) The SRB Assay was used to determine cell number during cytotoxocity experiments. The following protocol was used: • 1. […] Experimental cultures were cultured in 96-well microtiter plates (200 uL growth medium per well; 1,000-200,000 cells per well). • 3. Cultures were fixed with 50 uL 50% TCA (4° C.). (see cell fixation protocol for details). • 4. Fixed cells were stained with 50 uL 0.4% (wt/vol) SRB in 1% acetic acid for 10 minutes. • 5. SRB was removed and the cultures were quickly* rinsed 5 times with 1% acetic acid to remove unbound dye.** • 6. Cultures were air-dried overnight until there is no visible moisture. • 7. […] Absorbance was read at 540 nm. • * quickly performing rinsing process is to prevent desorption of protein-bound SRB • ** completely remove residual wash solution by sharply flicking plates over sink. Fixation of Cells Attached to the Plastic Substratum
(§3) The following protocol was used for fixing cells: • a. 50 uL of 50% TCA (4° C.) were gently layered on the top of growth medium in each well to make a final TCA concentration of 10%. • b. Cultures were incubated at 4° C. for 1 hour. • c. Cultures were washed 5 times with tap water to remove TCA, growth medium, low-molecular-weight metabolites, and serum protein. • d. Plates were air-dried until there was no visible moisture.

[2] = tested on: MCF-7 breast adenocarcinoma cell line; experiment: Cytotoxicity, SRB assay, MCF-7; assay type: cell-based; details: Homo sapiens, Example 4
Experimental: (§4) The SRB Assay was used to determine cell number during cytotoxocity experiments. The following protocol was used: • 1. Cells were detached with 0.25% trypsin. • 2. Experimental cultures were cultured in 96-well microtiter plates (200 uL growth medium per well; 1,000-200,000 cells per well). • 3. Cultures were fixed with 50 uL 50% TCA (4° C.). (see cell fixation protocol for details). • 4. Fixed cells were stained with 50 uL 0.4% (wt/vol) SRB in 1% acetic acid for 10 minutes. • 5. SRB was removed and the cultures were quickly* rinsed 5 times with 1% acetic acid to remove unbound dye.** • 6. Cultures were air-dried overnight until there is no visible moisture. • 7. The cellular protein-bound SRB was dissolved with 200 uL unbuffered Tris base (10 mM, pH 10.5) for 30 minutes on a rocking platform shaker. • 8. Absorbance was read at 540 nm. • * quickly performing rinsing process is to prevent desorption of protein-bound SRB • ** completely remove residual wash solution by sharply flicking plates over sink. Fixation of Cells Attached to the Plastic Substratum
as §3

TSU cells = experiment: Induction of apoptosis, TSU; assay type: cell-based, human
Experimental: as §1

CV-1 control cell line = experiment: Cytotoxicity, SRB assay, CV-1 control; assay type: cell-based, African green monkey; details: Chlorocebus sabaeus, read-out: IC50 CV-1
Experimental: as §4, §3

[3] = tested on: TCCSUP bladder cancer cell line; experiment: Cytotoxicity, SRB assay, TCCSUP; assay type: cell-based, human; details: Homo sapiens, TCC-SUP, read-out: IC50 TCCSUP
Experimental: as §2, §3

PPC-1 cells = experiment: Induction of apoptosis, PPC-1; assay type: cell-based, human
Experimental: as §1

[4] = tested on: PC-3 bone metastatic prostate cancer cell line; experiment: Cytotoxicity, SRB assay, PC-3; assay type: cell-based, human; details: Homo sapiens, read-out: IC50 PC-3
Experimental: PPC-1, LNCaP, TSU, PC-3, and DU145 were grown in PRMI-1640 medium containing 2 mM L-glutamine supplemented with 10% fetal bovine serum (FBS). Cells were maintained in a 5% CO2/95% air humidified atomosphere at 37° C.
as §4, §3

LNCaP cells = experiment: Induction of apoptosis, LNCaP; assay type: cell-based, human
Experimental: as §1

[5] = tested on: TSU prostate cancer cell line; experiment: Cytotoxicity, SRB assay, TSU; assay type: cell-based, human; details: Homo sapiens, read-out: IC50 TSU
Experimental: as §2, §3

DU 145 cells = experiment: Induction of apoptosis, DU 145; assay type: cell-based, human
Experimental: as §1

MCF-7 cells = experiment: Induction of apoptosis, MCF-7; assay type: cell-based
Experimental: as §1

[6] = tested on: AR-expressing LNCaP prostate cancer cell line; experiment: Cytotoxicity, SRB assay, LNCaP; assay type: cell-based, human; details: for IC50: Homo sapiens, LNCaP
Experimental: as §2, §3

CV-1 cells = experiment: Induction of apoptosis, CV-1; assay type: cell-based, African green monkey
Experimental: as §1

[7] = tested on: DU 145 prostate cancer cell line; experiment: Cytotoxicity, SRB assay, DU 145; assay type: cell-based, human; details: Homo sapiens
Experimental: as §2, §3

TCCSUP cells = experiment: Induction of apoptosis, TCCSUP; assay type: cell-based, human
Experimental: as §1

[8] = tested on: HT-29 colorectal adenocarcinoma cell line; experiment: Cytotoxicity, SRB assay, HT-29; assay type: cell-based, human; details: Homo sapiens
Experimental: as §2, §3

[9] = PPC-1, 24 h, read-out: IC50 PPC-1
[10] = PPC-1, 96 h, read-out: IC50 PPC-1
[11] = MCF7, 24 h, drug incubation time 1 day
[12] = MCF7, 96 h, drug incubation time 4 day
[13] = DU-145, 24 h, read-out: IC50 DU 145
[14] = DU-145, 96 h, read-out: IC50 DU 145
[15] = HT-29, 24 h, read-out: IC50 HT-29
[16] = HT-29, 96 h, read-out: IC50 HT-29

| SMILES | Enrichment factor HT-29 (HT-29 cells) | Enrichment factor PC-3 (PC-3 cells) | IC50 [1, 9] [µM] | IC50 [1, 10] [µM] | IC50 [2, 11] [µM] | IC50 [2, 12] [µM] | Enrichment factor TSU (TSU cells) | IC50 (CV-1 control cell line; 24 h) [µM] | IC50 (CV-1 control cell line; 96 h) [µM] | IC50 ([3]; 24 h) [µM] | IC50 ([3]; 96 h) [µM] | Enrichment factor PPC-1 (PPC-1 cells) | IC50 ([4]; 24 h) [µM] | IC50 ([4]; 96 h) [µM] | Enrichment factor LNCaP (LNCaP cells) | IC50 ([5]; 24 h) [µM] | IC50 ([5]; 96 h) [µM] | Enrichment factor DU 145 (DU 145 cells) | Enrichment factor MCF-7 (MCF-7 cells) | IC50 ([6]; 24 h, read-out: IC50 LNCaP) [µM] | also measured |
| --- | --- | --- | --- | --- | --- | --- | --- | --- | --- | --- | --- | --- | --- | --- | --- | --- | --- | --- | --- | --- | --- |
| C[C@](O)(COc1ccc(N=C=S)cc1)C(=O)Nc1ccc([N+](=O)[O-])c(C(F)(F)F)c1 [Compound V] | 1.410 | 2.500 | 63.7 ± 4.6 | 62.6 ± 4.9 | 32.7 ± 1.9 | 39.4 ± 5.4 | 1.167 | > 100 | > 100 | 90.4 ± 2.2 | 78.1 ± 11.2 | 1.749 | 47.8 ± 4.2 | 48.5 ± 10.1 | 2.000 | 54.1 ± 5.5 | 55 ± 0.8 | 5.071 | 1.926 | 19.8 ± 10.5 | IC50 ([1]; PPC-1, read-out: IC50 PPC-1): 58.1 ± 5.9 µM; IC50 [3]: > 100 µM; IC50 [4]: 59 ± 6 µM; IC50 [5]: 56.9 ± 2.9 µM; IC50 ([6]; 24 h, read-out: IC50 LNCaP 24 hr treatment): 39.6 µM; IC50 ([6]; 96 h, read-out: IC50 LNCaP): 12.8 ± 4.1 µM; IC50 ([6]; 144 h, read-out: IC50 LNCaP 6 day treatment): 33.6 µM; IC50 ([6]; read-out: IC50 LNCaP): 26 ± 8.3 µM; Selectivity for the AR-expressing LNCaP prostate cancer cell line ([6]; compared with prostate cancer cell lines not expressing AR, non-prostate cancer cell lines, control cell line): highly selective; Enrichment factor CV-1 (CV-1 cells): 6.548; IC50 [7, 13]: 62.1 ± 0.6 µM; IC50 [7, 14]: 69.7 ± 6.5 µM; IC50 ([7]; DU-145, read-out: IC50 DU145): 74.8 ± 1.2 µM; Enrichment factor TCCSUP (TCCSUP cells): 1.176; IC50 [8, 15]: 85.5 ± 4.5 µM; IC50 [8, 16]: 71 ± 1.2 µM; IC50 ([8]; HT-29, read-out: IC50 HT-29): 55 ± 1.7 µM |
| C[C@](O)(COc1ccc(NC(=O)CBr)cc1)C(=O)Nc1ccc([N+](=O)[O-])c(C(F)(F)F)c1 [DJ 1-29] | 1.667 | 0.531 | 0.9 ± 0.1 | 1.3 ± 0.1 | 11.9 ± 0.3 | 12.9 ± 0.7 | 1.008 | 6.8 ± 0.5 | 7.3 ± 0.2 | 2.6 ± 0.4 | 2.5 ± 0.4 | 1.146 | 2.3 ± 0.1 | 2.4 ± 0.4 | 16.571 | 1.3 ± 0.1 | 1 ± 0.1 | 18.643 | 1.617 | 1.1 ± 0.4 | IC50 ([6]; 96 h, read-out: IC50 LNCaP): 1.8 ± 0.2 µM; Enrichment factor CV-1 (CV-1 cells): 0.786; IC50 [7, 13]: 0.4 ± 0.1 µM; IC50 [7, 14]: 0.4 ± 0.1 µM; Enrichment factor TCCSUP (TCCSUP cells): 0.000; IC50 [8, 15]: 3.6 ± 0.4 µM; IC50 [8, 16]: 4.4 ± 0.2 µM |
